Measured values as given in patent EP4775582A1, “MACROCYCLIC COMPOUND AND ANTIBODY-DRUG CONJUGATE THEREOF” (Genfleet Therapeutics (Shanghai) Inc., priority 2023, dated 2025).
Where two headings read alike, the source gives them in different places.

Key:
[1] = Human liver microsomal stability experiment; type: in vitro ADME; conditions: human liver microsomes; for CLint scaled: 45 mg/g, 20.7 g/kg scaling
Procedure: This experiment was intended to investigate the metabolic stability of the test compounds in human liver microsomes. The materials used in the experiment included 10 mM solutions of the test compounds and the control sample, human liver microsomes, and reduced nicotinamide adenine dinucleotide phosphate (NADPH) powder. In the experiment, a 100 mM potassium phosphate buffer was used as the buffer system.
The liver microsome working solution was prepared by diluting the liver microsome stock solution to 0.75 mg/mL using the 100 mM potassium phosphate buffer. Then, 5 µL of the 10 mM stock solution of the test compound was taken, and 195 µL of methanol was added. The mixture was well mixed to prepare a working solution A with a concentration of 0.25 mM. Subsequently, the working solution A was diluted to 1.5 µM using the liver microsome working solution to prepare a compound-liver microsome mixed solution. Additionally, NADPH powder was dissolved in 100 mM potassium phosphate buffer to prepare a 6 mM NADPH solution. The compound-liver microsome mixed solution was dispensed into a 96-well plate at 30 µL/well, with labeled time points of 0 min, 30 min, and 60 min. For 0-min samples, 180 µL of acetonitrile containing 100 ng/mL tolbutamide and 15 µL of the NADPH solution were added directly. The 96-well plate and the NADPH solution were then preheated under a 37 °C water bath for 5 min. After the preheating, 15 µL of the NADPH solution was added to each of the 30-min and 60-min sample wells. The plate was gently shaken for mixing and then incubated under the 37 °C water bath for the corresponding time. After the incubation was completed, 180 µL of acetonitrile containing 100 ng/mL tolbutamide was added to each sample well. The plate was sealed with a sealing film, shaken for 10 min (800 rpm/min), and then centrifuged for 15 min (4000 rpm). After the centrifugation, 50 µL of the supernatant was taken and added to a 96-well plate containing 150 µL of deionized water, and then the plate was sealed and shaken for 10 min (800 rpm) for uniform mixing. Subsequently, sample analysis was performed using liquid chromatography-tandem mass spectrometry (LC-MS/MS). […] For humans, the microsome protein-to-liver weight ratio was 45 mg/g, and the liver-to-body weight ratio was 20.7 g/kg.

[2] = tested on: AsPC-1 cells; test: 3D cell proliferation assay (CellTiter Glo-3D), AsPC-1; type: cell-based, human; conditions: AsPC-1 cells (KRAS G12D), 3D, 2% FBS, 5 days, read-out: AsPC-1 AP IC50
Procedure, shortened: (§1)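 Cells seeded at 800 per well (AsPC-1, NCI-H441) in 2% FBS medium and incubated overnight at 37 °C, 5% CO2. Compounds added next day from 10× stock, then 5 days' further culture. Viability read by CellTiter-Glo luminescence; IC50 from four-parameter fit of inhibition versus log concentration.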

[3] = tested on: NCI-H441 cells; test: 3D cell proliferation assay (CellTiter Glo-3D), NCI-H441; type: cell-based, human; conditions: NCI-H441 cells (KRAS G12V), 2% FBS, 5 days, read-out: H441 AP IC50
Procedure, shortened: as §1

[4] = tested on: AsPC-1 p-ERK; test: Cell p-ERK assay (HTRF), AsPC-1 cells; type: cell-based, human; conditions: AsPC-1 cells (KRAS G12D), 3 h incubation, read-out: AsPC-1 p-ERK IC50
Procedure, shortened: (§2)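 AsPC-1 (10000/well) or NCI-H441 (20000/well) cells were seeded overnight and then exposed to compound for 3 h at 37 °C. Lysates were probed for ERK phospho-T202/Y204 by HTRF with a 4-hour antibody incubation. IC50 values came from four-parameter fits of inhibition against log concentration.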

[5] = tested on: H441 p-ERK; test: Cell p-ERK assay (HTRF), NCI-H441 cells; type: cell-based, human; conditions: NCI-H441 cells (KRAS G12V), 3 h incubation
Procedure, shortened: as §2

[6] = biological target: KRAS G12V-cRAF (Homo sapiens, UniProt P01116+P62937, G12V); test: Assay for binding of KRAS to cRAF (HTRF, with Cyclophilin A), KRAS G12V
Procedure: (§3) The plate was centrifuged at 1000 rpm for 1 min and then incubated in the thermostatic incubator at 20 °C for 30 min. […] The plate was centrifuged at 1000 rpm for 1 min and then incubated in the thermostatic incubator at 20 °C for 60 min. […] The working solution was added to the aforementioned assay plate at 5 µL/well. The plate was centrifuged at 1000 rpm for 1 min and then incubated in the thermostatic incubator at 20 °C for 60 min.

[7] = biological target: KRAS WT-cRAF (Homo sapiens, UniProt P01116+P62937); test: Assay for binding of KRAS to cRAF (HTRF, with Cyclophilin A), KRAS WT
Procedure: as §3

[8] = KRAS G12V-cRAF binding assay(nM), GPPNP-KRAS G12V, IC50 values
[9] = KRAS WT-cRAF binding assay(nM), GPPNP-KRAS WT, IC50 values
[10] = read-out: KRAS G12V-cRAF binding assay, GPPNP-KRAS G12V, IC50 values
[11] = read-out: KRAS WT-cRAF binding assay, GPPNP-KRAS WT, IC50 values

Sequence of KRAS WT-cRAF (P01116 1-188 isoform P01116-2): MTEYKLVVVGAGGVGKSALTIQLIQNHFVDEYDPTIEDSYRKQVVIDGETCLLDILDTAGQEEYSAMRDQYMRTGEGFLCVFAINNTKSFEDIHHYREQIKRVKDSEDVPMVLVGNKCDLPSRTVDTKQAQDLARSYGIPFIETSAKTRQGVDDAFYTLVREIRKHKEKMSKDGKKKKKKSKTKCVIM
Sequence of KRAS WT-cRAF (P62937 whole entry): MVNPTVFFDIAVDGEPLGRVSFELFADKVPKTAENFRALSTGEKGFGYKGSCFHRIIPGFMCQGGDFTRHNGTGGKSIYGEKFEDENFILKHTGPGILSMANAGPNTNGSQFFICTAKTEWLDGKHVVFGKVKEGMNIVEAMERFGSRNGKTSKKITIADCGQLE
Sequence of KRAS G12V-cRAF (P01116 1-188 isoform P01116-2 G12V): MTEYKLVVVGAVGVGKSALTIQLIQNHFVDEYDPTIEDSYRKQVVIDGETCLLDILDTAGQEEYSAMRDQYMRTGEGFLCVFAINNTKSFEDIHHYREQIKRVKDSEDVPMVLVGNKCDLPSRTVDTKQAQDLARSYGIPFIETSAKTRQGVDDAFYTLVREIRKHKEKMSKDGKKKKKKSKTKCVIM
Sequence of KRAS G12V-cRAF (P62937 whole entry): as the sequence (P62937 whole entry) above

| Structure (SMILES) | half-life at 1 µM ([1]; NADPH, 37 °C) [min] | CLint scaled [1] [mL/min/kg] | IC50 ([2]; Homo sapiens, ASPC1, 120 h) [nM] | IC50 ([3]; Homo sapiens, 120 h) [nM] | IC50 ([4]; Homo sapiens, ASPC1) [nM] | IC50 ([5]; Homo sapiens) [nM] | IC50 [6, 8] [nM] | IC50 [7, 9] [nM] | T1/2 ([1]; NADPH, 37 °C) [min] | IC50 [2] [nM] | IC50 [3] [nM] | IC50 [4] [nM] | IC50 [5] [nM] | IC50 [6, 10] [nM] | IC50 [7, 11] [nM] | half-life ([1]; NADPH, 37 °C) [min] |
| --- | --- | --- | --- | --- | --- | --- | --- | --- | --- | --- | --- | --- | --- | --- | --- | --- |
| CCn1c(-c2cc(C#CCN3CCC(C#N)CC3)cnc2C(C)OC)c2c3cc(ccc31)-c1csc(n1)CC(NC(=O)C1C3COCC31)C(=O)N1CCCC(N1)C(=O)OCC(C)(C)C2 (atropisomer, axis not shown; (Ra)) [Compound Z56, (1R,5S,6r)-N-((6^3S,4S,Z)-(Ra)-1^2-(5-(3-(4-cyanopiperidin-1-yl)prop-1-yn-1-yl)-2-((S)-1-methoxyethyl)-pyridin-3-yl)-1^1-ethyl-10,10-dimethyl-5,7-dioxo-6^1,6^2,6^3,6^4,6^5,6^6-hexahydro-1^1H-8-oxa-2(4,2)-thiazola-1(5,3)-indola-6(1,3)-pyridazinacycloundecaphane-4-yl)-3-oxabicyclo[3.1.0]hexane-6-carboxamide] | 23.3 | 68.9 | 0.09 | 0.14 | 0.07 | 0.12 | 11.9 | 13.9 |  |  |  |  |  |  |  |  |
| CCn1c(-c2cc(C#CCN3CCC(O)CC3)cnc2C(C)OC)c2c3cc(ccc31)-c1csc(n1)CC(NC(=O)C1C(C)C1C)C(=O)N1CCCC(N1)C(=O)OCC(C)(C)C2 (atropisomer, axis not shown; (Ra)) [Compound Z11, (1r,2R,3S)-N-((6^3S,4S,Z)-1^1-ethyl-(Ra)-1^2-(5-(3-(4-hydroxypiperidin-1-yl)prop-1-yn-1-yl)-2-((S)-1-methoxyethyl)pyridin-3-yl)-10,10-dimethyl-5,7-dioxo-6^1,6^2,6^3,6^4,6^5,6^6-hexahydro-1^1H-8-oxa-2(4,2)-thiazola-1(5,3)-indola-6(1,3)-pyridazinacycloundecaphane-4-yl)-2,3-dimethylcyclopropane-1-carboxamide] | 30.3 | 52.9 | 0.15 | 0.1 | 0.11 | 0.21 | 12.3 | 27.7 |  |  |  |  |  |  |  |  |
| CCn1c(-c2cc(C#CCN3CCC(C#N)(CN)CC3)cnc2[C@H](C)OC)c2c3cc(ccc31)-c1csc(n1)C[C@H](NC(=O)[C@H]1[C@@H]3COC[C@@H]31)C(=O)N1CCC[C@H](N1)C(=O)OCC(C)(C)C2 (atropisomer, axis not shown; (Ra)) [Compound Z52, (1R,5S,6r)-N-((6^3S,4S,Z)-(Ra)-1^2-(5-(3-(4-(aminomethyl)-4-cyanopiperidin-1-yl)prop-1-yn-1-yl)-2-((S)-1-methoxyethyl)-pyridin-3-yl)-1^1-ethyl-10,10-dimethyl-5,7-dioxo-6^1,6^2,6^3,6^4,6^5,6^6-hexahydro-1^1H-8-oxa-2(4,2)-thiazola-1(5,3)-indola-6(1,3)-pyridazinacycloundecaphane-4-yl)-3-oxabicyclo[3.1.0]hexane-6-carboxamide] |  |  |  |  |  |  |  |  | 47.3 | 0.08 | 0.17 | 0.06 | 0.13 | 13.3 | 16.5 |  |
| CCn1c(-c2cc(C#CCN3CCC(C#N)(CN)CC3)cnc2[C@H](C)OC)c2c3cc(ccc31)-c1csc(n1)C[C@H](NC(=O)[C@H]1[C@H](C)[C@@H]1C)C(=O)N1CCC[C@H](N1)C(=O)OCC(C)(C)C2 (atropisomer, axis not shown; (Ra)) [Compound Z181, (1r,2R,3S)-N-((6^3S,4S,Z)-1^2-(Ra)-(5-(3-(4-(aminomethyl)-4-cyanopiperidin-1-yl)prop-1-yn-1-yl)-2-((S)-1-methoxyethyl)pyridin-3-yl)-1^1-ethyl-10,10-dimethyl-5,7-dioxo-6^1,6^2,6^3,6^4,6^5,6^6-hexahydro-1^1H-8-oxa-2(4,2)-thiazola-1(5,3)-indola-6(1,3)-pyridazinacycloundecaphan-4-yl)-2,3-dimethylcyclopropane-1-carboxamide] |  | 36.9 |  |  |  |  |  |  |  |  |  |  |  | 13.1 | 36.4 | 43.4 |
